ChEMBL document CHEMBL6153025, “Multidrug-resistant bacteria quorum-sensing inhibitors: A particular focus on Pseudomonasaeruginosa” (Eur J Med Chem, 2025)
Values after ≈ are worked out from the molar mass of the structure shown. One block for each molecule: values may come before it.

Tests used:
Pseudomonas aeruginosa [1] = experiment: Antivirulence activity against Pseudomonas aeruginosa PAO1 assessed as inhibition of pyocyanin production at 16 ug/ml relative to control; assay type: functional; set-up: scale not given: the % may be the effect or the level left; settings: dose 16 µg/ml
Pseudomonas aeruginosa [2] = experiment: Antibiofilm activity against Pseudomonas aeruginosa PAO1 assessed as inhibition of biofilm formation at 16 ug/ml incubated for 24 hrs by crystal violet staining based assay relative to control; assay type: functional; set-up: scale not given: the % may be the effect or the level left; settings: dose 16 µg/ml
Pseudomonas aeruginosa [3] = experiment: Downregulation of lasR mRNA expression in Pseudomonas aeruginosa PAO1; assay type: functional
Pseudomonas aeruginosa [4] = experiment: Antivirulence activity against Pseudomonas aeruginosa PAO1 assessed as inhibition of rhamnolipid production at 16 ug/ml relative to control; assay type: functional; set-up: scale not given: the % may be the effect or the level left; settings: dose 16 µg/ml
Pseudomonas aeruginosa [5] = experiment: Antibacterial activity against Pseudomonas aeruginosa PAO1 by broth microdilution method; assay type: functional
Pseudomonas aeruginosa [6] = experiment: Downregulation of lasB mRNA level in Pseudomonas aeruginosa PAO1; assay type: functional
Pseudomonas aeruginosa [7] = experiment: Downregulation of pqsR mRNA expression in Pseudomonas aeruginosa PAO1; assay type: functional
Pseudomonas aeruginosa [8] = experiment: Downregulation of pqsA mRNA expression in Pseudomonas aeruginosa PAO1; assay type: functional
[9] = Inhibition of quorum sensing system in Pseudomonas aeruginosa PAO1 expressing lasB-gfp assessed as reduction fluorescence intensity measured for 12 hrs by GFP reporter strain assay
Pseudomonas aeruginosa [10] = experiment: Antibiofilm activity against Pseudomonas aeruginosa PAO1 assessed as inhibition of biofilm formation at 32 ug/ml incubated for 8 hrs by crystal violet staining based assay relative to control; assay type: functional; set-up: scale not given: the % may be the effect or the level left; settings: dose 32 µg/ml
Pseudomonas aeruginosa [11] = experiment: Anti-virulence effect in Pseudomonas aeruginosa PAO1 assessed as inhibition of rhamnolipid production at 10 uM relative to control; assay type: functional; set-up: scale not given: the % may be the effect or the level left
Pseudomonas aeruginosa [12] = experiment: Antibiofilm activity against Pseudomonas aeruginosa PA14 assessed as reduction in biofilm formation; assay type: functional
Pseudomonas aeruginosa [13] = experiment: Antibiofilm activity against Pseudomonas aeruginosa ATCC 27853 assessed as inhibition of biofilm formation at 8 microg/ml incubated for 24 hrs by crystal violet staining based analysis relative to control; assay type: functional; set-up: scale not given: the % may be the effect or the level left; settings: dose 8 µg/ml
[14] = Inhibition of quorum sensing system in Pseudomonas aeruginosa PAO1 expressing lasB-gfp at 10 uM relative to control
Pseudomonas aeruginosa [15] = experiment: Antibiofilm activity against Pseudomonas aeruginosa PAO1 assessed as inhibition of biofilm formation at 100 uM relative to control; assay type: functional; set-up: scale not given: the % may be the effect or the level left
[16] = Inhibition of quorum sensing system in Pseudomonas aeruginosa PAO1 expressing lasI-gfp assessed as inhibition of lasI expression at 50 ug/ml incubated for 8 hrs under shaking condition by microplate reader based analysis relative to control; settings: dose 50.0 µg/ml
Pseudomonas aeruginosa [17] = experiment: Antibacterial activity against Pseudomonas aeruginosa PAO1 assessed as reduction in bacterial growth; assay type: functional
Pseudomonas aeruginosa [18] = experiment: Antivirulence activity in Pseudomonas aeruginosa PAO1 assessed as reduction in elastase production at 10 uM incubated for 24 hrs by elastin-congo red dye based absorbance assay relative to control; assay type: functional; set-up: scale not given: the % may be the effect or the level left
[19] = Inhibition of quorum sensing system in Pseudomonas aeruginosa PAO1-rhlA-gfp assessed as inhibition of rhlA expression at 50 ug/ml incubated for 8 hrs by microplate reader based analysis relative to control; settings: dose 50.0 µg/ml
Pseudomonas aeruginosa [20] = experiment: Antibiofilm activity against Pseudomonas aeruginosa PAO1 assessed as inhibition of biofilm formation at 16 microg/ml incubated for 20 hrs by crystal violet staining based analysis; assay type: functional; set-up: scale not given: the % may be the effect or the level left; settings: dose 16 µg/ml
Pseudomonas aeruginosa [21] = experiment: Antivirulence activity against Pseudomonas aeruginosa PAO1 assessed as reduction in pyocyanin production at 20 ug/ml relative to control; assay type: functional; set-up: scale not given: the % may be the effect or the level left; settings: dose 20 µg/ml
[22] = Inhibition of quorum sensing system in Pseudomonas aeruginosa PAO1- rhlA-gfp assessed as reduction in fluorescence intensity measured for 12 hrs by GFP reporter strain assay
Pseudomonas aeruginosa [23] = experiment: Antibiofilm activity against logarithmic growth phase Pseudomonas aeruginosa PAO1 assessed as inhibition of biofilm formation incubated for 20 hrs by crystal violet staining based analysis; assay type: functional, organism-based; settings: PAO1, 20 h
[24] = Inhibition of quorum sensing system in Pseudomonas aeruginosa PAO1-pqsA-gfp assessed as reduction in fluorescence intensity incubated for 12 hrs by GFP reporter strain assay
Pseudomonas aeruginosa [25] = experiment: Downregulation of rhlA mRNA level in Pseudomonas aeruginosa PAO1 at 32 ug/ml relative to control; assay type: functional; settings: dose 32 µg/ml
Pseudomonas aeruginosa [26] = experiment: Antivirulence activity against Pseudomonas aeruginosa PAO1 assessed as reduction in pyocyanin level at 10 uM relative to control; assay type: functional; set-up: scale not given: the % may be the effect or the level left
Pseudomonas aeruginosa [27] = experiment: Antibiofilm activity against Pseudomonas aeruginosa PAO1 assessed as inhibition of biofilm formation incubated for 24 hrs by crystal violet staining based assay; assay type: functional, organism-based; settings: PAO1, 24 h
Pseudomonas aeruginosa [28] = experiment: Antivirulence activity in Pseudomonas aeruginosa PAO1 assessed as reduction in pyocyanin production at 10 uM incubated for 24 hrs by absorbance based analysis relative to control; assay type: functional; set-up: scale not given: the % may be the effect or the level left
Pseudomonas aeruginosa [29] = experiment: Anti-virulence activity in Pseudomonas aeruginosa PAO1 assessed as reduction in pyoverdine production at 160 ug/ml by absorbance based analysis relative to control; assay type: functional; set-up: scale not given: the % may be the effect or the level left; settings: dose 160 µg/ml
Pseudomonas aeruginosa [30] = experiment: Downregulation of rhlI mRNA expression level in Pseudomonas aeruginosa PAO1 at 200 uM by RT-PCR analysis relative to control; assay type: functional
Pseudomonas aeruginosa [31] = experiment: Antibiofilm activity against Pseudomonas aeruginosa PAO1; assay type: functional, organism-based
Pseudomonas aeruginosa [32] = experiment: Downregulation of lasR mRNA expression level in Pseudomonas aeruginosa PAO1 at 200 uM by RT-PCR analysis relative to control; assay type: functional
Pseudomonas aeruginosa [33] = experiment: Downregulation of rhlR mRNA expression level in Pseudomonas aeruginosa PAO1 at 200 uM by RT-PCR analysis relative to control; assay type: functional
Pseudomonas aeruginosa [34] = experiment: Downregulation of lasI mRNA expression level in Pseudomonas aeruginosa PAO1 at 200 uM by RT-PCR analysis relative to control; assay type: functional
Pseudomonas aeruginosa [35] = experiment: Inhibition of pyocyanin production in Pseudomonas aeruginosa PAO1; assay type: functional, organism-based
Pseudomonas aeruginosa [36] = experiment: Inhibition of rhamnolipid production in Pseudomonas aeruginosa PAO1; assay type: functional, organism-based
Pseudomonas aeruginosa [37] = experiment: Antibiofilm activity against Pseudomonas aeruginosa ATCC 27853 assessed as reduction in biofilm biomass at 16 ug/ml relative to control; assay type: functional; set-up: scale not given: the % may be the effect or the level left; settings: dose 16 µg/ml
Pseudomonas aeruginosa [38] = experiment: Anti-virulence activity in Pseudomonas aeruginosa PAO1 assessed as reduction in elastase production; assay type: functional, organism-based
[39] = Inhibition of quorum sensing system in Pseudomonas aeruginosa PAO1 expressing lasB-gfp

SMILES: COc1ccccc1N1CCN(c2ccnc(SCC(=O)Nc3c(C)cc(C)cc3C)n2)CC1
- Activity (Pseudomonas aeruginosa [1]): 76.56%
- Activity (Pseudomonas aeruginosa [2]): 52.4%
- Activity (Pseudomonas aeruginosa [3]): 85%
- Activity (Pseudomonas aeruginosa [4]): 62.46%
- MIC (Pseudomonas aeruginosa [5]): 500 µM (≈ 239 µg/mL)
- Activity (Pseudomonas aeruginosa [6]): 85%

- MIC (Pseudomonas aeruginosa [5]): 500 µM (≈ 214 µg/mL)
SMILES: Cc1nc2ccccc2nc1CSc1nc2ccccc2c(=O)n1-c1ccc(F)cc1
- Activity (Pseudomonas aeruginosa [7]): 90%
- Activity (Pseudomonas aeruginosa [8]): 90%
- Activity (Pseudomonas aeruginosa [2]): 46.37%

- IC50 [9]: 3.53 µM
SMILES: [O-][S+](Cc1ccc(Cl)cc1)c1nnc(-c2ccccc2)o1 (stereo not drawn)
- Activity (Pseudomonas aeruginosa [10]): 46.8%

SMILES: c1cc2c(cc1[C@H]1OC[C@H]3[C@@H]1CO[C@@H]3c1ccc3c(c1)OCO3)OCO2 [SESAMIN]
- Activity (Pseudomonas aeruginosa [11]): 51.31%
- Activity (Pseudomonas aeruginosa [1]): 87%
- MIC (Pseudomonas aeruginosa [12]): 75 µg/mL (≈ 212 µM)
- Activity (Pseudomonas aeruginosa [13]): 92%

SMILES: COc1ccc([C@H](CNC(=O)Nc2ccccc2F)c2c[nH]c3ccccc23)cc1OC
- Activity (Pseudomonas aeruginosa [7]): 90%
- Activity (Pseudomonas aeruginosa [1]): 74.27%
- Activity (Pseudomonas aeruginosa [8]): 90%
- Activity (Pseudomonas aeruginosa [2]): 67.32%
- Activity (Pseudomonas aeruginosa [4]): 66.4%
- MIC (Pseudomonas aeruginosa [5]): 500 µM (≈ 217 µg/mL)

- inhibition [14]: 30%
SMILES: O=Cc1ccc2c(c1)OC(c1ccc(O)c(O)c1)O2 (stereo not drawn)
- Activity (Pseudomonas aeruginosa [15]): 44.63%

SMILES: O=C(CCc1ccc(Br)cc1)NC1CCOC1=O (stereo not drawn)
- inhibition [16]: 87%
- MIC (Pseudomonas aeruginosa [17]): 10 µM (≈ 3.12 µg/mL)
- Activity (Pseudomonas aeruginosa [18]): 44%
- inhibition [19]: 80%
- Activity (Pseudomonas aeruginosa [20]): 48%
- Activity (Pseudomonas aeruginosa [21]): 19%

SMILES: C=C1CC(=O)N(c2ccc(Br)cc2)C1=O
- IC50 [22]: 6.67 µM
- IC50 (Pseudomonas aeruginosa [23]): 10 µM
- IC50 [24]: 2.51 µM
- Activity (Pseudomonas aeruginosa [25]): 78%
- Activity (Pseudomonas aeruginosa [26]): 55%

SMILES: CCCCCCCCn1ccnc1
- IC50 (Pseudomonas aeruginosa [27]): 0.74 µM
- Activity (Pseudomonas aeruginosa [28]): 97.37%
- Activity (Pseudomonas aeruginosa [29]): 88%

SMILES: O=c1cc(-c2ccc(O)c(O)c2)oc2cc(O)cc(O)c12 [LUTEOLIN]
- Activity (Pseudomonas aeruginosa [30]): 98%
- IC50 (Pseudomonas aeruginosa [31]): 50 µM
- Activity (Pseudomonas aeruginosa [32]): 98%
- Activity (Pseudomonas aeruginosa [33]): 98%
- Activity (Pseudomonas aeruginosa [34]): 98%

SMILES: O=C(/C=C/c1ccc(O)c(O)c1)OCCc1ccc(Br)cc1
- IC50 (Pseudomonas aeruginosa [35]): 20 µM
- IC50 (Pseudomonas aeruginosa [36]): 1.25 µM
- Activity (Pseudomonas aeruginosa [37]): 33.69%
- IC50 (Pseudomonas aeruginosa [38]): 20 µM
- IC50 [39]: 20 µM
